# Measured values taken from patent publication US20230119539A1, “TRACELESS LINKERS AND PROTEIN-CONJUGATES THEREOF” (Regeneron Pharmaceuticals, Inc., priority 2019, published 2023).
# Legend:
# [1] = pH stability of quenched linker-payloads in buffers (LCMS); assay type: physicochemical
# Experimental: To a solution of compound (payloads or quenched-linker-payloads) in DMSO (0.2-1.0 mg/mL) was added corresponding PBS buffer (V(buffer)/V(DMSO)=5) to give test samples (pH 3, 4, 5, 6, 7.4, and 8.5, or other special pH). The test samples were incubated at RT for at least 3 days and monitored by LCMS (i.e., at 1 hr, 2 hr, 4 hr, 8 hr, and 1 day, 2 day, 3 day, 4 day, 5 day, 6 day, 7 day, 8 day, 9 day, and 21 day time points). Initial concentrations of the samples were 0.2 mg/mL (DMSO/buffer, v/v=1/5). […] The payloads and quenched linker-payloads were mostly stable at pH >5.0, 6.0, 7.4 and 8.5 after 3 days. In more acidic conditions, such as pH 1.0, the payloads or linker-payloads were easily cleaved to release D*-OH.
# [2] = Metabolic stability with human liver microsomes; assay type: in vitro ADME; conditions: for Area ratio of III formed from PIII-1 / Percent Remaining (%): Mean
# Experimental: The metabolic stability of payload PIII-1 incubated with human liver microsomes was evaluated and the results were shown in the Table 7e below.
# [3] = buffer, 1 day, 0.2 mg/mL, pH 7.4
# [4] = buffer, 2 day, 0.2 mg/mL, pH 7.4
# [5] = buffer, 7 day, 0.2 mg/mL, pH 7.4
SMILES,"LP: percentage of linker-payloads remaining ([1]; pH 4.0, day 1)","P: percentage of budesonide released from the linker-payloads ([1]; pH 4.0, day 1)","LP: percentage of linker-payloads remaining ([1]; pH 4.0, day 2)","P: percentage of budesonide released from the linker-payloads ([1]; pH 4.0, day 2)","LP: percentage of linker-payloads remaining ([1]; pH 4.0, day 7)","P: percentage of budesonide released from the linker-payloads ([1]; pH 4.0, day 7)","LP: percentage of linker-payloads remaining ([1]; pH 5.0, day 1)","P: percentage of budesonide released from the linker-payloads ([1]; pH 5.0, day 1)","LP: percentage of linker-payloads remaining ([1]; pH 5.0, day 2)","P: percentage of budesonide released from the linker-payloads ([1]; pH 5.0, day 2)","LP: percentage of linker-payloads remaining ([1]; pH 5.0, day 7)","P: percentage of budesonide released from the linker-payloads ([1]; pH 5.0, day 7)","LP: percentage of linker-payloads remaining ([1]; pH 7.4, day 1)","P: percentage of budesonide released from the linker-payloads ([1]; pH 7.4, day 1)","LP: percentage of linker-payloads remaining ([1]; pH 7.4, day 2)","P: percentage of budesonide released from the linker-payloads ([1]; pH 7.4, day 2)","P: percentage of budesonide released from the linker-payloads ([1]; pH 7.4, day 7)","P: percentage of budesonide released from the linker-payloads ([1]; pH 6.0, day 1)","P: percentage of budesonide released from the linker-payloads ([1]; pH 6.0, day 2)","P: percentage of budesonide released from the linker-payloads ([1]; pH 6.0, day 7)",further results
CCCC1OC2CC3C4CCC5=CC(=O)C=CC5(C)C4C(O)CC3(C)C2(C(=O)COCN2CCCC(NC(=O)OCc3ccc(NC(=O)C(CCCNC(N)=O)NC(=O)C(NC(=O)CCOCCOCCOCCOCCNC(=O)CCC(=O)N4Cc5ccccc5-c5c(nnn5CCOCCOCCOCCOCCC(=O)NCCS(=O)(=O)O)-c5ccccc54)C(C)C)cc3)C2=O)O1 (mixture of isomers) [Q1L1-PII-12],100%,0%,100%,0%,100%,0%,100%,0%,100%,0%,100%,0%,100%,0%,100%,0%,0%,,,,"LP: percentage of linker-payloads remaining ([1]; pH 7.4, day 7): 100%"
CCCC1OC2CC3C4CCC5=CC(=O)C=CC5(C)C4C(O)CC3(C)C2(C(=O)COC2CCN2C(=O)CNC(=O)CCOCCOCCOCCOCCNC(=O)CCC(=O)N2Cc3ccccc3-c3c(nnn3CCOCCOCCOCCOCCC(=O)NCCS(=O)(=O)O)-c3ccccc32)O1 (mixture of isomers) [Q1L6-PII-13],100%,0%,100%,0%,100%,0%,100%,0%,100%,0%,100%,0%,100%,0%,100%,0%,0%,0%,0%,0%,"LP: percentage of linker-payloads remaining ([1]; pH 6.0, day 1): 100%; LP: percentage of linker-payloads remaining ([1]; pH 6.0, day 2): 100%; LP: percentage of linker-payloads remaining ([1]; pH 6.0, day 7): 100%; LP: percentage of linker-payloads remaining ([1]; pH 7.4, day 7): 100%"
CCCC1O[C@@H]2C[C@H]3[C@@H]4C[C@H](F)C5=CC(=O)C=C[C@]5(C)[C@@]4(F)[C@@H](O)C[C@]3(C)[C@]2(C(=O)CO)O1 (stereo partly drawn) [III from P11I-1],,,,,,,,,,,,,,,,,,,,,Area ratio of III formed from PIII-1 ([2]; 0 min): BQL; Area ratio of III formed from PIII-1 ([2]; 5 min): 0.001; Area ratio of III formed from PIII-1 ([2]; 15 min): 0.002; Area ratio of III formed from PIII-1 ([2]; 30 min): 0.001; Area ratio of III formed from PIII-1 ([2]; 45 min): 0.001
"CCCC1O[C@@H]2C[C@H]3[C@@H]4CCC5=CC(=O)C=C[C@]5(C)[C@H]4[C@@H](O)C[C@]3(C)[C@]2(C(=O)COCNC(=O)CNC(=O)OCc2ccc(O[C@@H]3O[C@H](CO)[C@@H](O)[C@H](O)[C@H]3O)c(C(=O)NCCNC(=O)COC3C#CCCCCC3)c2)O1 (stereo partly drawn) [L18-PII-1, COT-EDA-(GLC)PAB-G-NHCH2-Bud]",,0%,,0%,,0%,,0%,,0%,,0%,,0%,,0%,0%,0%,0%,0%,"LP: percentage of linker-payloads remaining ([1]; buffer, 1 day, 0.2 mg/mL, pH 4): 100%; LP: percentage of linker-payloads remaining ([1]; buffer, 1 day, 0.2 mg/mL, pH 5): 100%; LP: percentage of linker-payloads remaining ([1]; buffer, 1 day, 0.2 mg/mL, pH 6): 100%; LP: percentage of linker-payloads remaining [1, 3]: 100%; LP: percentage of linker-payloads remaining ([1]; buffer, 2 day, 0.2 mg/mL, pH 4): 100%; LP: percentage of linker-payloads remaining ([1]; buffer, 2 day, 0.2 mg/mL, pH 5): 100%; LP: percentage of linker-payloads remaining ([1]; buffer, 2 day, 0.2 mg/mL, pH 6): 100%; LP: percentage of linker-payloads remaining [1, 4]: 100%; LP: percentage of linker-payloads remaining ([1]; buffer, 7 day, 0.2 mg/mL, pH 4): 100%; LP: percentage of linker-payloads remaining ([1]; buffer, 7 day, 0.2 mg/mL, pH 5): 100%; LP: percentage of linker-payloads remaining ([1]; buffer, 7 day, 0.2 mg/mL, pH 6): 100%; LP: percentage of linker-payloads remaining [1, 5]: 100%"
O=C(c1ccc(F)cc1)C1CCN(CCn2c(=O)[nH]c3ccccc3c2=O)CC1 [ketanserin],,,,,,,,,,,,,,,,,,,,,Percent Remaining (%) ([2]; 0 min): 100.00%; Percent Remaining (%) ([2]; 5 min): 81.45%; Percent Remaining (%) ([2]; 15 min): 67.51%; Percent Remaining (%) ([2]; 30 min): 41.90%; Percent Remaining (%) ([2]; 45 min): 36.47%; CLint scaled ([2]; human): 55.2 mL/min/kg; half-life ([2]; human): 31.5 min
CCCC1O[C@@H]2C[C@H]3[C@@H]4CCC5=CC(=O)C=C[C@]5(C)[C@H]4[C@@H](O)C[C@]3(C)[C@]2(C(=O)COC2CCCN2C(=O)CNC(=O)CCOCCOCCOCCOCCNC(=O)CCC(=O)N2Cc3ccccc3-c3c(nnn3CCOCCOCCOCCOCCC(=O)NCCS(=O)(=O)O)-c3ccccc32)O1 (stereo partly drawn) [Q1L6-PII-9],,69%,,89%,,99%,,5%,,10%,,28%,,0%,,0%,0%,0%,0%,8%,"LP: percentage of linker-payloads remaining ([1]; buffer, 1 day, 0.2 mg/mL, pH 4): 30%; LP: percentage of linker-payloads remaining ([1]; buffer, 1 day, 0.2 mg/mL, pH 6): 100%; LP: percentage of linker-payloads remaining [1, 3]: 100%; LP: percentage of linker-payloads remaining ([1]; buffer, 2 day, 0.2 mg/mL, pH 4): 10%; LP: percentage of linker-payloads remaining ([1]; buffer, 2 day, 0.2 mg/mL, pH 6): 100%; LP: percentage of linker-payloads remaining [1, 4]: 100%; LP: percentage of linker-payloads remaining ([1]; buffer, 7 day, 0.2 mg/mL, pH 4): 0%; LP: percentage of linker-payloads remaining ([1]; buffer, 7 day, 0.2 mg/mL, pH 6): 92%; LP: percentage of linker-payloads remaining [1, 5]: 100%"
